The text below walks through data of ChEMBL document CHEMBL4418306, “Quinolinone lysyl oxidase-like 2 inhibitors and uses thereof” (2017).

The source made the active and inactive calls. The rule behind the calls is not given here.

For the assay, the system named is Mus musculus. As to the kind of experiment: Antifibrotic activity in C57BL/6 mouse model of bleomycin-induced lung fibrosis assessed as reduction in collagen level in lung at 60 mg/kg, po pre-treated 1 hr to 1 day before bleomycin injection and measured after 14 to 28 days by hydroxyproline assay. It counts as functional, organism-based.

`NCc1cc(=O)c2cc(Br)ccc2[nH]1`: the outcome was Active.
